From patent publication US6627732B1, “Glutathione derivatives and their dosage forms” (Teijin Limited, priority 1998, dated 2003)

Assays:
rabbit liver esterase = assay: Decomposition of glutathione derivatives by rabbit liver esterase (physiological stability); format: in vitro ADME; details: BSA/D-PBS pH 7.4, 196-244 μg/ml
Procedure: (1) Bovine serum albumin (hereinafter referred to as BSA), Dulbecco's phosphate buffered saline (hereinafter referred to as D-PBS), swine liver esterase, and rabbit liver esterase were purchased from Sigma, 6-week old male SD rats were purchased from Nippon SLC, and 12-week old or older male Japanese white rabbits were purchased from Ichikawaya. On the day of the incubation experiment described below, blood was drawn from the animals in the presence of heparin, and plasma was separated therefrom for use. Human plasma was obtained from normal healthy males after obtaining their consent.
(2) The glutathione derivatives described in the Examples and Comparative Examples of the present invention were incubated for a fixed time in an enzyme solution having the following composition. Acetonitrile was added to the reaction mixture to inactivate the enzyme thereby to stop the reaction. The concentration of the glutathione derivatives in the deproteinized supernatant was measured by HPLC. For each time point of the esterase enzyme experiment, the mean values from two measurement or more were determined, and for the rats and rabbits the mean values of plasma samples from three individuals were determined. For some of the experiment data, changes with time of percentages relative to initial concentration of the glutathione derivative are shown in FIGS. 2 to 4.
Swine liver esterase and rabbit liver esterase experiment
30 mg-BSA/ml-D-PBS (pH 7.4): 36 to 45 parts
Swine or rabbit liver esterase/D-PBS: 4-5 parts
10 mg-glutathione derivative/ml-ethanol: one part (the final concentration in the reaction mixture is 196-244 μg/ml)

Stability in rat plasma = format: in vitro ADME; details: for Half life in rat plasma: heparinized plasma, diluted as needed with BSA/D-PBS, 250-323 μg/ml
Procedure: Rat, rabbit, and human plasma
Heparinized plasma: 30 to 40 parts
(rat plasma was diluted, as needed, with 30 mg-BSA/ml-D-PBS (pH 7.4) for use)

swine liver esterase = assay: Decomposition by swine liver esterase with and without fat emulsion (Example 22); format: in vitro ADME; details: for Decomposition rate constant in the absence of the fat emulsion: alcohol solution with physiological saline; for Decomposition rate constant in the presence of the fat emulsion: fat emulsion added at 15 (v/v)%
Procedure: The glutathione derivative combined with a fat emulsion was incubated with swine liver esterase to compare the resistance to decomposition.
Thereupon, the concentration of the glutathione derivatives of Comparative Examples 1 and 2 in the fat emulsion were each adjusted to 1 mg/ml.
After incubation for a fixed time in a similar manner to that in Example 19, the content of the glutathione derivative was quantitated by HPLC. As the control experiment, an alcohol solution of the glutathione derivative of Example 4, Comparative Example 1 or 2 was added to the esterase reaction mixture together with physiological saline for adjustment of the total volume, and incubated similarly and analyzed by HPLC.
(3) Since a linear disappearance curve was observed as in Example 19, each decomposition rate constant was determined and was compared, which was summarized in Table 6.

[1] = Pharmacokinetics after intravenous administration to rabbits, 2-compartment model (Example 25); format: in vivo, rabbit; details: iv auricular vein 2 ml/kg, fat emulsion (Comparative Ex. 1: HPCD/glucose solution)
Source text: For the glutathione derivative of the present invention having a long-chain ester having 12 carbons or more and the glutathione derivatives of the conventional technology of Comparative Examples 1 and 2, kinetics in the blood were compared in rabbits that are a species having allow esterase activity in the blood.
(1) Male Japanese white rabbits, 12-week old or older, were purchased from Ichikawaya, and those rabbits that became 15-week old or older and whose body weight reached about 3 kg were used for the experiment. During the period up to the experiment, the animals were allowed free access to the animal feed and drinking water and were kept at a temperature of 24±2° C. and a humidity of 55±5%.
(2) The glutathione derivative having a long-chain ester of 12 carbons or more and the glutathione derivative of Comparative Example 2 were prepared at 20-200 mg/ml in a mixture of ethanol or ethanol:benzyl alcohol, which was mixed with the fat emulsion just prior to use, and was filtered with a 1.2 μm filter to obtain a liquid for intravenous administration. On the other hand, the glutathione derivative of Comparative Example 1 was dissolved in an aqueous solution of 6%-hydroxypropyl-β-cyclodextrin/5%-glucose at 15 mg/ml to obtain an administration liquid.
(3) The administration liquid of the glutathione derivative obtained in (2) at a dose of 2 ml/kg was rapidly infused into the left auricular vein of the rabbits under no anesthesia and under restraint at a rate of 1 ml/min. Each glutathione derivative was given to three or more rabbits. At 5, 10, 15, 30, 60, 120, and 240 minutes after the completion of the administration, 1 ml of the blood was drawn from the right auricular vein in the presence of heparin, which was immediately cooled on ice. Plasma was obtained by centrifuging the blood, 1-2 volume parts of acetonitrile was added to deproteinize the supernatant, which was filtered by a 0.5 μm filter. The supernatant of the filtrate was quantitated by HPLC.

CCCCCCCCOC(=O)[C@H](NC(=O)[C@H](CSCc1ccccc1)NC(=O)CC[C@H](N)C(=O)OCC)c1ccccc1.Cl [Comparative Example 2, Glu(Cys(Bzl)-D-Phg-O(Octyl))-O(Et)hydrochloride, reference compound]
Decomposition rate constant by rabbit liver esterase (rabbit liver esterase): 267 10^−4/unit/min | Half life in rat plasma (Stability in rat plasma): 12.6 s | Ratio of decomposition rate constant (in the presence of the fat emulsion/physiological saline) (swine liver esterase): 0.454 | Decomposition rate constant in the absence of the fat emulsion (swine liver esterase): 3.638 × 10^−2 /unit/min | Decomposition rate constant in the presence of the fat emulsion (swine liver esterase): 1.650 × 10^−2 /unit/min | Clearance per body weight [1]: 156 mL/min/kg | Distribution volume per body weight of the central compartment [1]: 4.18 L/kg

CCCCCCCCCCCCCCCCOC(=O)[C@@H](N)CCC(=O)N[C@@H](CSCc1ccccc1)C(=O)N[C@@H](C(=O)OCC)c1ccccc1.Cl [Example 4, Glu(Cys(Bzl)-D-Phg-OEt)-O(Hexadecyl)hydrochloride]
Decomposition rate constant by rabbit liver esterase (rabbit liver esterase): 0.836 10^−4/unit/min | Half life in rat plasma (Stability in rat plasma): 9240 s | Ratio of decomposition rate constant (in the presence of the fat emulsion/physiological saline) (swine liver esterase): 0.185 | Decomposition rate constant in the absence of the fat emulsion (swine liver esterase): 1.100 × 10^−4 /unit/min | Decomposition rate constant in the presence of the fat emulsion (swine liver esterase): 2.033 × 10^−5 /unit/min | Clearance per body weight [1]: 3.33 mL/min/kg | Distribution volume per body weight of the central compartment [1]: 0.06 L/kg

CCOC(=O)[C@@H](N)CCC(=O)N[C@@H](CSCc1ccccc1)C(=O)N[C@@H](C(=O)OCC)c1ccccc1.Cl [Comparative Example 1, Glu(Cys(Bzl)-D-Phg-O(Et))-O(Et)hydrochloride, reference compound]
Stability in biological sample solutions such as rat blood (Stability in rat plasma): very unstable | Half life in rat plasma (Stability in rat plasma): 7.8 s | Half life in the plasma of experimental animals (Stability in rat plasma; mice and rats): extremely short half life | Ratio of decomposition rate constant (in the presence of the fat emulsion/physiological saline) (swine liver esterase): 0.609 | Decomposition rate constant in the absence of the fat emulsion (swine liver esterase): 1.206 × 10^−2 /unit/min | Decomposition rate constant in the presence of the fat emulsion (swine liver esterase): 7.343 × 10^−3 /unit/min | Clearance per body weight [1]: 254.5 mL/min/kg | Distribution volume per body weight of the central compartment [1]: 0.80 L/kg
